According to patent US9782345B2, “Ocular composition and method” (Jade Therapeutics, Inc, priority 2013, dated 2017):

Assay: Tobramycin release study from CMHA-S/PEGDA films (OPA fluorescence assay)
Assay type: physicochemical
Experimental: Tobramycin sulfate (2 mg/film) and tobramycin free base (2 mg/film) were used for this study. As tobramycin absorbs UV weakly, OPA assay and measuring fluorescence were used to calculate cumulative release of tobramycin. Amount of release tobramycin was calculated from standard curve. The accumulated release amount of tobramycin was more than 1 mg (thus more than 50% release) over 7 days.
Drug-loaded films were placed in PBS for the antibiotic release study. The fluid was removed and assayed daily. For tobramycin, detection was performed using an O-phthaldialdehyde (OPA) reagent. OPA, in the presence of reduced sulfhydryl groups, reacts with the primary amine group in tobramycin to form fluorescent moieties. The fluorescence was measured at an excitation wavelength of 360 nm, and an emission wavelength of 460 nm. The amount of released drug was calculated using a standard solution of tobramycin. For moxifloxacin, UV absorption at 293 nm was used to measure the amount of released drug. The amount of released drug was calculated using a standard solution of moxifloxacin. This removed fluid was also used to assess the bactericidal capability of released antibiotic by the disk diffusion method on agar plates seeded with S. aureus and P. aeruginosa measuring zone of inhibition (ZOI). Similar ZOI bacterial work was also performed using the actual films by an outside lab, Analytical Resource Lab (ARL, Salt Lake City, Utah).
Each film contained 40 μg of tobramycin free base. CMHA-S films were made with 3 different crosslinking ratios: 1.5, 2.0, or 2.5. As tobramycin absorbs UV weakly, OPA assay was used to measure fluorescence using low concentrations of tobramycin. The amount of released tobramycin was calculated from a standard curve. The accumulated released amount of tobramycin was more than 20 μg (thus more than 50% release) over 7 days. The release increased continuously up to day 3 and remained unchanged for the different thiol to acrylate ratios.

release of tobramycin (share of load) (40 μg tobramycin free base per film, over 7 days (FIG. 5)): more than 50%
accumulated released amount of tobramycin (40 μg tobramycin free base per film, thiol to acrylate 1.5, 2.0, 2.5, over 7 days (FIG. 5)): more than 20 μg
accumulated release amount of tobramycin (2 mg/film tobramycin sulfate or free base, thiol to acrylate 1.5 and 2.0, over 7 days (FIG. 3)): more than 1 mg
release of tobramycin (share of load) (2 mg/film, over 7 days (FIG. 3)): more than 50%
SMILES: NC[C@H]1O[C@H](O[C@H]2[C@H](O)[C@@H](O[C@H]3O[C@H](CO)[C@@H](O)[C@H](N)[C@H]3O)[C@H](N)C[C@@H]2N)[C@H](N)C[C@@H]1O [tobramycin]
